# Experimental data as given in US20250346605A1, “NEW DERIVATIVES FOR TREATING TRPM3 MEDIATED DISORDERS” (Katholieke Universiteit Leuven, priority 2022, published 2025).
# Molecular target: T1, mouse TRPM3α2 (mTRPM3) ion channel (Mus musculus, UniProt J9SQF3)
# T1 construct: expressed in transfected cells; host or cells: Flp-In HEK293
# Assay: TRPM3 ion channel driven Ca2+ uptake (Fluo-4 AM assay), PS-stimulated overexpressing HEK293 cells
# Assay type: cell-based
# Settings: flip-in HEK293 overexpressing TRPM3, stimulated with Pregnenolone sulfate (PS) 50 μM, activity ranges A, B, C
# Procedure: In order to monitor the inhibition of the mouse TRPM3α2 (mTRPM3) ion channel by the compounds of the invention, a cellular system making use of an mTRPM3alpha2 or hTRPM3 overexpressing cell line (flip-in HEK293) was used. The TRPM3 channel was stimulated/opened with Pregnenolone sulfate (PS) (50 μM) which results in Ca^2+ influx.
# For mTRPM3, the intracellular Ca^2+ was measured with a Calcium responsive dye, Fluor-4 AMV ester (Invitrogen). Cells were cultured until a confluence of 80-90%, washed with Versene (Invitrogen) and detached from the surface by a short incubation with 0.05% Trypsin (Invitrogen). The trypsination process was stopped by the addition of complete cell culture medium (DMEM, glutamax, 10% FCS, NEAA, Pen-Strep). Cells were collected and resuspended in Krebs buffer without Calcium at RT.
# Prior the cell seeding (±2000 cells/well into a black, 384 well plate (Greiner)) the diluted compound was added in the assay plate, together with the PS dissolved in Krebs buffer containing Calcium. […] Directly after cell addition the plates were read on an Envision fluorescence reader (Perkin Elmer) by an Excitation of 485 nm and emission at 535 nm.
# Channel inhibition was calculated compared to a non-PS stimulated control versus a condition stimulated with PS (50 μM) with vehicle. The ability of the compounds of the invention to inhibit this activity was determined as: Percentage inhibition=[1-((RFU determined for sample with test compound present−RFU determined for sample with positive control inhibitor) divided by (RFU determined in the presence of vehicle−RFU determined for sample with positive control inhibitor))]*100.
# The activities of the Example compounds tested are depicted in the table below. The activity ranges A, B and C refer to IC50 values in the Fluo-4 AM assay as follows: “A”: IC50<1 μM; “B”: 1 μM≤IC50≤20 μM and “C”: IC50>20 μM
# T1 sequence (J9SQF3 1-1709 isoform J9SQF3-12): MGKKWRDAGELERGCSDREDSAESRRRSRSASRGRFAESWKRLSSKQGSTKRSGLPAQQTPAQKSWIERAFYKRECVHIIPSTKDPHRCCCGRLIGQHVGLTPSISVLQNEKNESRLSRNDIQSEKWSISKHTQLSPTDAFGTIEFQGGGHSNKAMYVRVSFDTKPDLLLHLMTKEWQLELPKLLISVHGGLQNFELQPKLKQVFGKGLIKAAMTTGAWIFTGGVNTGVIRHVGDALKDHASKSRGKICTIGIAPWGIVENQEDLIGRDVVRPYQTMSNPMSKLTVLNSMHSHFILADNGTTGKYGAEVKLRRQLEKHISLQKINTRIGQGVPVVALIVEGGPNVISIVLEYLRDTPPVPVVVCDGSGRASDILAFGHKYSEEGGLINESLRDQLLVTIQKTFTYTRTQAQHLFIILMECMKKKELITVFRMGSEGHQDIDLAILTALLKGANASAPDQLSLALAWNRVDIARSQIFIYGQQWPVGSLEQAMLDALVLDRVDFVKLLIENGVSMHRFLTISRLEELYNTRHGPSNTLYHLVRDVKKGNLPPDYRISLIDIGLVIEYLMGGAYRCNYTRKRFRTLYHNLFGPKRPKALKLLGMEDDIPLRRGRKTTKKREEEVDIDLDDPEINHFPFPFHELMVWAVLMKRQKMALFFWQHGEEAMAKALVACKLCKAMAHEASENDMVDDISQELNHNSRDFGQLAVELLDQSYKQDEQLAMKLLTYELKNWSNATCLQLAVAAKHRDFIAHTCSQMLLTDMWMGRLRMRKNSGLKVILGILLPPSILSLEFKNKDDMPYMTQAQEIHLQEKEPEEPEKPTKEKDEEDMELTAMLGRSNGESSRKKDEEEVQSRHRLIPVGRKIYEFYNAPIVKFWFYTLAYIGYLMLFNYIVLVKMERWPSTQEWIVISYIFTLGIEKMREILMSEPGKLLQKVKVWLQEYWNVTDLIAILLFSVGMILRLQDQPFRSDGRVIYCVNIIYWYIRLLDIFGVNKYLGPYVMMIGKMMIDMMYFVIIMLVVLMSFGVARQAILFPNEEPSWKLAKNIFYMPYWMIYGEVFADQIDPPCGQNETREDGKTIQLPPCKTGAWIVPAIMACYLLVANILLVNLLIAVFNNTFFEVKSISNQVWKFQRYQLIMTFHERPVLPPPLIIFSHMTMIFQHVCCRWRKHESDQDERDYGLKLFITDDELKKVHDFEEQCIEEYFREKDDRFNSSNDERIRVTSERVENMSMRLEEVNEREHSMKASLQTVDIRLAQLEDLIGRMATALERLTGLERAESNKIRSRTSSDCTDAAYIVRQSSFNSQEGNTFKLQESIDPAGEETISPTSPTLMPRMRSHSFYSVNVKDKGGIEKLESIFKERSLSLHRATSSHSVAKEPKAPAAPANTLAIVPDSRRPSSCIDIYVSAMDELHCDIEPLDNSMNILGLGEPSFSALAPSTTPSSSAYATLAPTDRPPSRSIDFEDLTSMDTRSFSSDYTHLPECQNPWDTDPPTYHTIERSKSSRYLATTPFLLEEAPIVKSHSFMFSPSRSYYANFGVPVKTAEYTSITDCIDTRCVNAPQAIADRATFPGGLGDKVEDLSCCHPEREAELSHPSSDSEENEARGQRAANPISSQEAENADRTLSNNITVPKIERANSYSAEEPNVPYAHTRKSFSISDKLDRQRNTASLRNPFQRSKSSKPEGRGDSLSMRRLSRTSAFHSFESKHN
row,SMILES,IC50 [µM]
1,"Cc1ncsc1COc1cc2c(C(=O)N[C@H](C(N)=O)[C@@H](C)O)c(C)oc2cn1 [Cpd 004, (2S,3R)-3-hydroxy-2-({2-methyl-5-[(4-methyl-1,3-thiazol-5-yl)methoxy]furo[2,3-c]pyridin-3-yl}formamido)butanamide]",< 1
2,"Cc1ncsc1COc1cc2c(C(=O)NC3CNCC3(F)F)c(C)oc2cn1 (single isomer, unassigned) [Cpd 021-En2, N-(4,4-difluoropyrrolidin-3-yl)-2-methyl-5-[(4-methyl-1,3-thiazol-5-yl)methoxy]furo[2,3-c]pyridine-3-carboxamide]",> 20
3,"Cc1ncsc1COc1cc2c(C(=O)NC(C)C(N)=O)c(C)oc2cn1 (single isomer, unassigned) [Cpd 005-En2, 2-({2-methyl-5-[(4-methyl-1,3-thiazol-5-yl)methoxy]furo[2,3-c]pyridin-3-yl}formamido)propanamide]",> 20
4,"Cc1ncc(COc2cc3c(C(=O)N[C@H](C(N)=O)[C@@H](C)O)c(C)oc3cn2)s1 [Cpd 003, (2S,3R)-3-hydroxy-2-({2-methyl-5-[(2-methyl-1,3-thiazol-5-yl)methoxy]furo[2,3-c]pyridin-3-yl}formamido)butanamide]",1 to 20
5,"Cc1ncsc1COc1cc2c(C(=O)NC3(CO)CCOCC3)c(C)oc2cn1 [Cpd 035, N-[4-(hydroxymethyl)oxan-4-yl]-2-methyl-5-[(4-methyl-1,3-thiazol-5-yl)methoxy]furo[2,3-c]pyridine-3-carboxamide]",1 to 20
6,"Cc1oc2cnc(OCc3ccccc3F)cc2c1C(=O)NC(C)(C)C(N)=O [Cpd 007, 2-({5-[(2-fluorophenyl)methoxy]-2-methylfuro[2,3-c]pyridin-3-yl}formamido)-2-methylpropanamide]",1 to 20

# Next, values leading:
row,IC50 [µM],SMILES
1,1 to 20,"Cc1oc2cnc(OCc3ccccc3F)cc2c1C(=O)NC(CO)C(N)=O (single isomer, unassigned) [Cpd 008-En1, 2-({5-[(2-fluorophenyl)methoxy]-2-methylfuro[2,3-c]pyridin-3-yl}formamido)-3-hydroxypropanamide]"
2,1 to 20,"Cc1oc2cnc(OCc3ccccn3)cc2c1C(=O)NC(CO)C(N)=O (single isomer, unassigned) [Cpd 014-En1, 3-hydroxy-2-({2-methyl-5-[(pyridin-2-yl)methoxy]furo[2,3-c]pyridin-3-yl}formamido)propanamide]"
3,1 to 20,"Cc1oc2cnc(OCc3ccccn3)cc2c1C(=O)NC(C)(C)C(N)=O [Cpd 012, 2-methyl-2-({2-methyl-5-[(pyridin-2-yl)methoxy]furo[2,3-c]pyridin-3-yl}formamido)propanamide]"
4,< 1,"Cc1oc2cnc(OCc3ccccn3)cc2c1C(=O)NC(CO)C(N)=O (single isomer, unassigned) [Cpd 014-En2, 3-hydroxy-2-({2-methyl-5-[(pyridin-2-yl)methoxy]furo[2,3-c]pyridin-3-yl}formamido)propanamide]"
5,1 to 20,"Cc1oc2cnc(OCc3ccccn3)cc2c1C(=O)NC1CCN(CCO)C1=O (centres unmarked) [Cpd 027, N-[1-(2-hydroxyethyl)-2-oxopyrrolidin-3-yl]-2-methyl-5-[(pyridin-2-yl)methoxy]furo[2,3-c]pyridine-3-carboxamide]"
6,1 to 20,"Cc1oc2cnc(OCc3ccccc3F)cc2c1C(=O)NC(C)C(N)=O (single isomer, unassigned) [Cpd 009-En2, 2-({5-[(2-fluorophenyl)methoxy]-2-methylfuro[2,3-c]pyridin-3-yl}formamido)propanamide]"
7,1 to 20,"Cc1oc2cnc(OCc3ccccc3)cc2c1C(=O)NC(C)C(N)=O (centres unmarked) [Cpd 010-Enl, 2-{[5-(benzyloxy)-2-methylfuro[2,3-c]pyridin-3-yl]formamido}propanamide]"
8,1 to 20,"Cc1ncc(COc2cc3c(C(=O)N[C@@H](CO)C(N)=O)c(C)oc3cn2)s1 [Cpd 001, (2S)-3-hydroxy-2-({2-methyl-5-[(2-methyl-1,3-thiazol-5-yl)methoxy]furo[2,3-c]pyridin-3-yl}formamido)propanamide]"
